The results in this text go back to patent US4017485A, “7-Methoxycephalosporin derivatives” (Takeda Chemical Industries, Ltd., priority 1973, dated 1977).

Structures are written as SMILES. Structures can show the parent of a compound that is named as a salt.

Data set [1] has as its system Bacillus subtilis PCI 219. Nature of the data set: Antimicrobial spectrum, minimal inhibitory concentration. The conditions noted are these: PCI219, Tripticase Soy Agar (BBL), pH 6.5, 37° C, read-out: minimal inhibitory concentrations. Format: cell-based. As for the experimental part:
(§1) Based on the above physical and chemical properties as well as the results of other analyses, the chemical structure of this new antibiotic C-2801-X was determined as follows. [drawing 2] 11. Antimicrobial spectrum: Medium: Tripticase Soy Agar (BBL) (manufactured by Becton Dickenson Co., U.S.A.), pH 6.5, minimal inhibitory concentrations mcg/ml., temperature 37° C

The test system of data set [2] is Escherichia coli (clinical isolate, antibiotic-susceptible strain). The data set is described as above. The format is cell-based. The note with it: Tripticase Soy Agar (BBL), pH 6.5, 37° C, read-out: minimal inhibitory concentrations. On the procedure:
as §1

Data set [3] relates to Escherichia coli NIHJ. The description is as above. Format: cell-based. The conditions noted are these: Tripticase Soy Agar (BBL), pH 6.5, 37° C, read-out: minimal inhibitory concentrations. As for the experimental part: as §1
The subject of data set [4] is Pseudomonas aeruginosa NCTC-10490. Described as above. The format is cell-based. The note with it: NCTC10490, Tripticase Soy Agar (BBL), pH 6.5, 37° C, read-out: minimal inhibitory concentrations. On the procedure:
as §1

Data set [5] relates to Staphylococcus aureus 209 P (chloramphenicol, streptomycin, tetracycline and erythromycin-resistant). Described as above. The format is cell-based. The note with it: pH 6.5, read-out: minimal inhibitory concentrations. As for the experimental part:
as §1

The subject of data set [6] is Staphylococcus aureus 209 P. The data set is described as above. Format: cell-based. The conditions noted are these: Tripticase Soy Agar (BBL), pH 6.5, 37° C, read-out: minimal inhibitory concentrations. On the procedure:
as §1

In data set [7] the test system is Straphylococcus aureus No.87. The data set is described as above. The format is cell-based. The conditions noted are these: Tripticase Soy Agar (BBL), pH 6.5, 37° C, read-out: minimal inhibitory concentrations. As for the experimental part: as §1
Data set [8] has as its system Aerobacter cloacae IFO-12009. The description is as above. Format: cell-based. The conditions noted are these: Enterobacter cloacae, IFO12009, Tripticase Soy Agar (BBL), pH 6.5, 37° C, read-out: minimal inhibitory concentrations. On the procedure:
as §1
(§2) (The IFO-numbers given above are the accession numbers at the Institute
(§3) for Fermentation, Osaka, Japan).

Data set [9] deals with Alcaligenes faecalis IFO-13111. The description is as above. The format is cell-based. The note with it: IFO13111, Tripticase Soy Agar (BBL), pH 6.5, 37° C, read-out: minimal inhibitory concentrations. On the procedure: as §1, §2, §3
Data set [10] deals with Bacillus pumilus IFO-3813. Described as above. The format is cell-based. The note with it: IFO3813, Tripticase Soy Agar (BBL), pH 6.5, 37° C, read-out: minimal inhibitory concentrations. On the procedure: as §1, §2, §3
Data set [11] concerns Klebsiella pneumoniae IFO-3512. Described as above. The format is cell-based. The note with it: IFO3512, Tripticase Soy Agar (BBL), pH 6.5, 37° C, read-out: minimal inhibitory concentrations. On the procedure:
as §1, §2, §3

The subject of data set [12] is Proteus mirabilis IFO-3849. The data set is described as above. The format is cell-based. The conditions noted are these: IFO3849, Tripticase Soy Agar (BBL), pH 6.5, 37° C, read-out: minimal inhibitory concentrations. On the procedure: as §1, §2, §3
For data set [13], the system named is Proteus morganii IFO-3848. The description is as above. Format: cell-based. The note with it: Morganella morganii, IFO3848, Tripticase Soy Agar (BBL), pH 6.5, 37° C, read-out: minimal inhibitory concentrations. On the procedure: as §1, §2, §3
The test system of data set [14] is Proteus vulgaris IFO-3988. Described as above. The note with it: IFO3988, Tripticase Soy Agar (BBL), pH 6.5, 37° C, read-out: minimal inhibitory concentrations. The format is cell-based. On the procedure:
as §1, §2, §3

Data set [15] deals with Pseudomonas aeruginosa IFO-3080. Described as above. The format is cell-based. The conditions noted are these: IFO3080, Tripticase Soy Agar (BBL), pH 6.5, 37° C, read-out: minimal inhibitory concentrations. On the procedure:
as §1, §2, §3

The test system of data set [16] is Salmonella enteritidis IFO-3313. The description is as above. The format is cell-based. The conditions noted are these: Salmonella enterica, Tripticase Soy Agar (BBL), pH 6.5, 37° C, read-out: minimal inhibitory concentrations. On the procedure: as §1, §2, §3
The subject of data set [17] is Salmonella typhimurium IFO-12529. The data set is described as above. The note with it: Salmonella enterica, Tripticase Soy Agar (BBL), pH 6.5, 37° C, read-out: minimal inhibitory concentrations. The format is cell-based. On the procedure: as §1, §2, §3
Data set [18] deals with Escherichia coli (clinical isolate*). The description is as above. The format is cell-based. The note with it: clinical isolate resistant to tetracycline, streptomycin, kanamycin, lividomycin, aminobenzylpenicillin and sulbenicillin, Tripticase Soy Agar (BBL), pH 6.5, 37° C, read-out: minimal inhibitory concentrations. On the procedure: as §1
*The strain is resistant to tetracycline, streptomycin, kanamycin,
lividomycin, aminobenzylpenicillin and sulbenicillin.

For data set [19], the system named is Escherichia coli (clinical isolate**). The description is as above. Format: cell-based. The conditions noted are these: clinical isolate resistant to sulfonamide, streptomycin and sulbenicillin, Tripticase Soy Agar (BBL), pH 6.5, 37° C, read-out: minimal inhibitory concentrations. As for the experimental part: as §1
**The strain is resistant to sulfonamide, streptomycin and sulbenicillin.

In data set [20] the test system is mice. Nature of the data set: Acute toxicity test in mice. The format is in vivo. The note with it: 400 mg. per kilogram of body weight, intravenously. As for the experimental part: In an acute toxicity test in mice, there occurred no death when 400 mg. of Antibiotic C-2801-X monosodium salt per kilogram of body weight was administered intravenously.
The nature of data set [21]: Solubility. The format is physicochemical.
The nature of data set [22]: acidity-alkalinity. Format: physicochemical.
Data set [23] can be described thus: Stability under strongly acidic and under alkaline conditions. Format: physicochemical.
Data set [24] relates to Staphylococcus aureaus, Bacillus subtilis, Escherichia coli, Proteus vulgaris, Salmonella typhimurium, aerobic bacteria. Nature of the data set: Inhibition of bacterial growth (summary statement). Format: cell-based. The note with it: antibiotic C-2801-X and its salts.

As to `COC(=Cc1ccc(O)c(O)c1)C(=O)OCC1=C(C(=O)O)N2C(=O)C(NC(=O)CCCC(N)C(=O)O)(OC)C2SC1` (stereo not shown) [Antibiotic C-2801-X monosodium salt], the MIC was 12.5 µg/mL in data set [1]; 25 µg/mL in data set [2]; 50 µg/mL in data set [3]; above 100 µg/mL in [4]; 50 µg/mL in [5]; 50 µg/mL in data set [6]. Besides, the MIC in [7] worked out at 50 µg/mL; in data set [8], 25 µg/mL; in data set [9] it was 12.5 µg/mL; in data set [10], 50 µg/mL; in data set [11], 6.25 µg/mL; in data set [12] it was 3.13 µg/mL. For the same compound, the MIC in data set [13] was 25 µg/mL; in data set [14] it was 12.5 µg/mL; in data set [15] it was above 100 µg/mL; in data set [16] it was 6.25 µg/mL; in [17] it was 6.25 µg/mL; in data set [18], 25 µg/mL. In addition, the MIC in [19] turned out to be 25 µg/mL. Further, in [20], the “death in acute toxicity test” value is “no death”. For the same compound, the Solubility result is listed as “Insoluble” in data set [21] (in chloroform); “Soluble” in data set [21] (in ethanol); “Insoluble” in [21] (in ether); “Insoluble” in data set [21] (in ethyl acetate); “Soluble” in [21] (in methanol); “Soluble” in data set [21] (in water). In data set [22], the acidity-alkalinity result is “Amphoteric”.

As for `COC(=Cc1ccc(O)c(O)c1)C(=O)OCC1=C(C(=O)O)N2C(=O)C(NC(=O)CCCC(N)C(=O)O)(OC)C2SC1` (stereo not shown) [Antibiotic C-2801-X], the Solubility result in data set [21] (in water) is “water-soluble”. Besides, the stability result in data set [23] is “unstable”. Besides, the acidity-alkalinity entry in [22] is given as “amphoteric”. In data set [24], the “inhibition of growth of bacteria” value is given as “inhibit the growth”.
